Experimental findings from patent publication US20150218212A1, “FLUORINATED EPOXYKETONE-BASED TETRAPEPTIDE COMPOUNDS AND USES THEREOF AS PROTEASOME INHIBITORS” (FLUORINOV PHARMA INC., priority 2012, published 2015) are described below.

In assay [1] the target is T1, proteasome Caspase-like (C-L) activity (Mus musculus, UniProt P70195+Q60692).
T1 construct: RBCs were lysed with assay lysis buffer and incubated on ice for 30 minutes; from tissue; host or cells: red blood cells of NOD/SCID mice
The assay can be described thus: Pharmacodynamic proteasome activity in murine red blood cells, C-L. As to conditions: iv, mice, 2 mg/kg i.v., time 0, read-out: Caspase-like (C-L) mean residual activity relative to vehicle treated controls. In kind it is in vivo, NOD/SCID mice. As for the experimental part: Cells were harvested by centrifugation at 1,200 rpm at room temperature. Cell pellets were washed with PBS (phosphate buffered saline) and lysed with assay lysis buffer (50 mM HEPES (N-2-hydroxyethylpiperazine-N′-2-ethanesulfonic acid), pH 7.5; 150 mM NaCl; 1% Triton X-100; 2 mM ATP). Cell lysates were incubated on ice for 30 minutes, mixed by vortex every 5 minutes, and then centrifuged at 12,000 g for 10 minutes. The supernatant was transferred to a 96-well plate. For each assay, 10 μg of total protein were incubated for 1 hour at 37° C. with increasing concentrations (1 nM to 10 μM) of test compound diluted in assay buffer (50 mM tris-HCl (tris(hydroxymethyl)aminomethane-HCl), pH 7.5; 150 mM NaCl). DMSO alone was used as a control in every assay plate. After incubation, a specific fluorogenic proteasome substrate was added to each assay reaction at a final concentration of 40 μM in a total volume of 100 μL. N-Succinyl-Leu-Leu-Val-Tyr-7-amino-4-methylcoumarin (Suc-Leu-Leu-Val-Tyr-AMC) was used for measuring chymotrypsin-like (CT-L) activity, t-butoxycarbonyl-Leu-Arg-Arg-7-amino-4-methylcoumarin (Boc-Leu-Arg-Arg-AMC) for trypsin-like (T-L) activity, and benzyloxycarbonyl-L-leucyl-L-leucyl-L-glutamyl-7-amino-4-methylcoumarin (Z-Leu-Leu-Glu-AMC) for caspase-like (C-L) activity. The excitation wavelength was set at 360 nm and the fluorescence emission wavelength of AMC was detected at 460 nm. The fluorescence of free AMC released during the enzymatic reaction was measured with a SpectraMax M5 fluorescent spectrophotometric plate reader (Molecular Devices, Sunnyvale, Calif.). AMC release rate was measured at 37° C. in a kinetic mode, recording every 5 minutes for 30 minutes. Experiments were performed in triplicate and repeated at least twice.
All mouse experiments were performed in accordance with approval from the Ontario Cancer Institute institutional animal review board. Five- to six-week-old male non-obese diabetic/severe combined immunodeficient (NOD/SCID) mice were grouped randomly (n=3 mice per group). Mice were administered vehicle (5% DMSO, 20% Cremophor) or compounds of Formula I at different doses either intravenously or by oral gavage, and venous blood samples (20-50 μL) were collected from each mouse over 24 hours. Blood samples were mixed with heparin (APP Pharmaceuticals; Schaumburg, Ill.) in 0.5 mL tubes in accordance with the manufacturer's instructions. After centrifugal separation at 3,000 g for 10 minutes, red blood cells (RBCs) in the bottom layer were transferred into a new tube and stored at −70° C. until use. RBCs were lysed with assay lysis buffer and incubated on ice for 30 minutes, mixing by vortex every 5 minutes, and then centrifuged at 12,000 g for 10 minutes. The supernatant was transferred to a 96-well plate and proteasome activity was measured as described above for tumor cell lysates.
Proteasome subunit activity (Chymotrypsin-like, Trypsin-like, Caspase-like, CT-L, T-L, C-L, respectively) were monitored over the course of 24 hrs following […] administration of representative compounds of Formula I. NOD/SCID mice were treated with compounds of Formula I (2 mg/kg by iv administration) or vehicle control and carfilzomib for up to 24 hours, as described above. Table 9 summarizes the data on pharmacodynamic activity of representative compounds of Formula I following a dose of 2 mg/kg intravenous (i.v) administration to mice. Data are presented as mean residual activity (SEM) relative to vehicle treated controls.

The next assay has as its system MCF7. Description: NCI screening panel, MCF7 (Breast Cancer). Format: cell-based, human. As for the experimental part: Representative compounds of Formula I were screened using the National Cancer Institute (NCI) screening panel, which consists of a panel of human tumor cell lines, representing leukemia, melanoma, and cancers of the lung, colon, ovary, breast, prostate and renal system.
After 24 h, two plates of each cell line are fixed in situ with TCA, to represent a measurement of the cell population for each cell line at the time of drug addition (Tz). Experimental drugs are solubilised in dimethyl sulfoxide at 400-fold the desired final maximum test concentration and stored frozen prior to use. At the time of drug addition, an aliquot of frozen concentrate is thawed and diluted to twice the desired final maximum test concentration with complete medium containing 50 μg/mL gentamicin. Additional four, 10-fold or ½ log serial dilutions are made to provide a total of five drug concentrations plus control. Aliquots of 100 μl of these different drug dilutions are added to the appropriate microtiter wells already containing 100 μl of medium, resulting in the required final drug concentrations.
Following drug addition, the plates are incubated for an additional 48 h at 37° C., 5% CO2, 95% air, and 100% relative humidity. For adherent cells, the assay is terminated by the addition of cold TCA (trichloroacetic acid). Cells are fixed in situ by the gentle addition of 50 μl of cold 50% (w/v) TCA (final concentration, 10% TCA) and incubated for 60 minutes at 4° C. The supernatant is discarded, and the plates are washed five times with tap water and air dried. Sulforhodamine B (SRB) solution (100 μl) at 0.4% (w/v) in 1% acetic acid is added to each well, and plates are incubated for 10 minutes at room temperature. After staining, unbound dye is removed by washing five times with 1% acetic acid and the plates are air dried. Bound stain is subsequently solubilised with 10 mM trizma base, and the absorbance is read on an automated plate reader at a wavelength of 515 nm. For suspension cells, the methodology is the same except that the assay is terminated by fixing settled cells at the bottom of the wells by gently adding 50 μl of 80% TCA (final concentration, 16% TCA). Using the seven absorbance measurements [time zero, (Tz), control growth, (C), and test growth in the presence of drug at the five concentration levels (Ti)], the percentage growth is calculated at each of the drug concentrations levels. Percentage growth inhibition is calculated as: [(Ti−Tz)/(C−Tz)]×100 for concentrations for which Ti>/=Tz and [(Ti−Tz)/Tz]×100 for concentrations for which Ti<Tz.
Three dose response parameters are calculated for each experimental agent. Growth inhibition of 50% (GI50) is calculated from [(Ti−Tz)/(C−Tz)]×100=50, which is the drug concentration resulting in a 50% reduction in the net protein increase (as measured by SRB staining) in control cells during the drug incubation. The drug concentration resulting in total growth inhibition (TGI) is calculated from Ti=Tz. The LC50 (concentration of drug resulting in a 50% reduction in the measured protein at the end of the drug treatment as compared to that at the beginning) indicating a net loss of cells following treatment is calculated from [(Ti−Tz)/Tz]×100=−50. Values are calculated for each of these three parameters if the level of activity is reached. However, if the effect is not reached or is exceeded, the value for that parameter is expressed as greater or less than the maximum or minimum concentration tested.

Molecules are shown by their SMILES.

With `CC(C)C[C@H](NC(=O)[C@H](COC(F)F)NC(=O)CN1CCOCC1)C(=O)N[C@@H](COC(F)F)C(=O)N[C@@H](CC(C)C)C(=O)[C@@]1(C)CO1` [Example 1, (2S)—N-[(1S)-1-(difluoromethoxymethyl)-2-[[(1S)-3-methyl-1-[(2R)-2-methyloxirane-2-carbonyl]butyl]amino]-2-oxo-ethyl]-2-[[(2S)-3-(difluoromethoxy)-2-[(2-morpholinoacetyl)amino]propanoyl]amino]-4-methyl-pentanamide], the remaining activity at 2 mg/kg in assay [1] was 100%. In the assay on MCF7, the Log10GI50 is under −8.00, the Log10LC50 is over −4.00 and the Log10TGI50 is given as −5.18.

`CC(C)C[C@H](NC(=O)[C@H](COC(F)F)NC(=O)CN1CCOCC1)C(=O)N[C@@H](Cc1ccccc1)C(=O)N[C@@H](CC(C)C)C(=O)[C@@]1(C)CO1` [Example 2, (2S)-N-[(1S)-1-benzyl-2-[[(1S)-3-methyl-1-[(2R)-2-methyloxirane-2-carbonyl]butyl]-amino]-2-oxo-ethyl]-2-[[(2S)-3-(difluoromethoxy)-2-[(2-morpholinoacetyl)amino]propanoyl]amino]-4-methyl-pentanamide]: the remaining activity at 2 mg/kg in assay [1] was found to be 100%. In the assay on MCF7, this molecule returned a Log10GI50 of under -8.00, a Log10LC50 of over −4.00 and a Log10TGI50 of −4.94.

For the molecule `CC(C)C[C@H](NC(=O)[C@H](COC(F)F)NC(=O)CN1CCOCC1)C(=O)N[C@@H](Cc1ccccc1)C(=O)N[C@@H](Cc1ccccc1)C(=O)[C@@]1(C)CO1` [Example 3, (2S)-N-[(1S)-1-benzyl-2-[[(1S)-1-benzyl-2-[(2R)-2-methyloxiran-2-yl]-2-oxo-ethyl]amino]-2-oxo-ethyl]-2-[[(2S)-3-(difluoromethoxy)-2-[(2-morpholinoacetyl)-amino]propanoyl]amino]-4-methyl-pentan-amide], the remaining activity at 2 mg/kg in assay [1] was 100%. In addition, in the assay on MCF7, the Log10GI50 is under −8.00, the Log10LC50 is listed as over −4.00 and the Log10TGI50 was −4.65.

Take `CC(C)C[C@H](NC(=O)[C@H](COC(F)F)NC(=O)CN1CCOCC1)C(=O)N[C@@H](COC(F)F)C(=O)N[C@@H](Cc1ccccc1)C(=O)[C@@]1(C)CO1` [Example 4, (2S)-N-[(1S)-2-[[(1S)-1-benzyl-2-[(2R)-2-methyloxiran-2-yl]-2-oxo-ethyl]amino]-1-(difluoromethoxymethyl)-2-oxo-ethyl]-2-[[(2S)-3-(difluoromethoxy)-2-[(2-mor-pholinoacetyl)amino]propanoyl]amino]-4 methyl-pentanamide]: the remaining activity at 2 mg/kg in assay [1] came to 100%. In the assay on MCF7, this molecule displayed a Log10GI50 of under −8.00, a Log10LC50 of over −4.00 and a Log10TGI50 of −4.82.

Consider `CC(C)C[C@H](NC(=O)[C@H](COC(F)F)NC(=O)[C@H](COC(F)F)NC(=O)[C@H](CCc1ccccc1)NC(=O)CN1CCOCC1)C(=O)[C@@]1(C)CO1` [Example 7, (2S)-N-[(1S)-1-(difluoromethoxymethyl)-2-[[(1S)-1-(difluoromethoxymethyl)-2-[[(1S)-3-methyl-1-[(2R)-2-methyloxirane-2-carbo-nyl]butyl]amino]-2-oxo-ethyl]amino]-2-oxo-ethyl]-2-[(2-morpholinoacetyl)amino]-4-phenyl-butanamide], for which the remaining activity at 2 mg/kg in assay [1] was 100%. In the assay with MCF7, this molecule showed a Log10GI50 of under −8.00, a Log10LC50 of over −4.00 and a Log10TGI50 of over −4.00.

Take `CC(C)C[C@H](NC(=O)[C@H](Cc1ccccc1)NC(=O)[C@H](COC(F)F)NC(=O)[C@H](COC(F)F)NC(=O)CN1CCOCC1)C(=O)[C@@]1(C)CO1` [Example 11, (2S)-2-[[(2S)-3-(difluoromethoxy)-2-[[(2S)-3-(difluoromethoxy)-2-[(2-morpholinoacetyl)-amino]propanoyl]amino]propanoyl]amino]-N-[(1S)-3-methyl-1-[(2R)-2-methyloxirane-2-carbonyl]butyl]-3-phenyl-propanamide]: the remaining activity at 2 mg/kg in assay [1] came out at 100%. Besides, in the assay on MCF7, the Log10GI50 is recorded as under −8.00, the Log10LC50 is over −4.00 and the Log10TGI50 is reported as over −4.00.

On to `CC(C)C[C@H](NC(=O)[C@H](COC(F)F)NC(=O)[C@H](COC(F)F)NC(=O)[C@H](COC(F)F)NC(=O)CN1CCOCC1)C(=O)[C@@]1(C)CO1` [Example 17, (2S)-3-(difluoromethoxy)-N-[(1S)-1-(difluoromethoxymethyl)-2-[[(1S)-1-(difluoro-methoxymethyl)-2-[[(1S)-3-methyl-1-[(2R)-2-methyloxirane-2-carbonyl]butyl]amino]-2-oxo-ethyl]amino]-2-oxo-ethyl]-2-[(2-mor-pholinoacetyl)amino]-propanamide], for which the remaining activity at 2 mg/kg in assay [1] turned out to be 100%. In the assay on MCF7, this molecule registered a Log10GI50 of −7.57, a Log10LC50 of over −4.00 and a Log10TGI50 of over −4.00.
